# According to paper PMC11625344, “A peptide derived from the amino terminus of leptin improves glucose metabolism and energy homeostasis in myotubes and db/db mice” (The Journal of Biological Chemistry, 2024):
# Where no end group is shown, it is not given here.
# What was measured:
# TNFα = experiment: Serum TNFα ELISA; assay type: in vivo, mouse; settings: metformin-treated db/db group (50 mg/kg), 30 days
# Protocol: (§1) In vivo antidiabetic activity of the peptide was studied in diabetic animal model db/db mice. Male db/db mice with hyperglycemia were identified by checking their blood glucose level and selected for the study. Mice were divided into four groups, and the number of animals in each group was five. Blood glucose levels were measured using Accu-Chek glucometer and blood glucose measurement strips. The study was continued for 30 days. At the start of the study, fasting blood glucose in each animal was recorded, and OGTT was performed in each animal of all groups. To perform OGTT, the mice were fasted for 6 h, and then 30 min before oral glucose loading, the fasting blood glucose level in each mouse was recorded. After fasting of 6 h 3 g/kg body weight glucose was loaded orally and blood glucose at 0 minute was recorded simultaneously. Blood glucose was measured after every 30 min at 30, 60, 90, and 120 min after oral glucose loading. Time of oral glucose loading was considered as 0 min. After OGTT on day-1 peptide dosing was started. Dosing of M10 peptide at 10 mg/kg and 20 mg/kg body weight was started from day one on alternate day basis through intraperitoneal route for 30 days. Thus 15 doses of the peptide/drug were administered in each db/db mice over a period of 30 days. On final day, OGTT was performed again with the same procedure described above. […]
# AMPK protein = experiment: AMPK activation (Thr-172 phosphorylation), Western blot; assay type: cell-based, rat; settings: peptides 5 μM 3 h; metformin 50 μM 6 h; normalised to total AMPK
# Source text: (§2) In order to examine the peptide-induced activation of a protein, related to a signaling event, we have assessed its expression in the peptide-treated L6 myotubes with respect to the myotubes, not treated with the peptide and myotubes-treated with a positive control. For this purpose, we have performed Western blotting experiments by usual procedure after resolving the proteins of the whole cell lysates of L6 myotubes, treated at different experimental conditions by SDS-PAGE. Briefly describing the procedure, whole cell lysate was prepared by lysing the cells in radioimmunoprecipitation assay lysis buffer and equal amount of lysate was resolved on 10% SDS-PAGE. Resolved proteins were transferred to nitrocellulose membrane and the membrane was blocked with 5% skimmed milk solution. Incubated with specific primary (ratio of 1: 2500 of antibody to phosphate-buffered saline with Tween 20 (PBST) used for antibodies purchased from Sigma-Aldrich and Millipore, 1:1000 for antibodies purchased from Santa Cruz) and secondary antibodies (antibody concentration of 1:2000 in PBST), and the blots were developed using ChemiDoc ([34]).
# [1] = tested on: acetyl-CoA carboxylase-2 (ACC2); experiment: ACC2 serine-80 phosphorylation, Western blot; assay type: cell-based, rat
# Source text: as §2
# adiponectin = experiment: Serum adiponectin ELISA; assay type: in vivo, mouse; settings: metformin 50 mg/kg, 30 days; vs diabetic db/db control group
# Protocol: as §1
# IL-6 = experiment: Serum IL-6 ELISA; assay type: in vivo, mouse; settings: metformin-treated db/db group (50 mg/kg), 30 days
# Protocol: as §1
# db/db mice = experiment: In vivo antidiabetic activity, OGTT and fasting blood glucose; parameters: species or system mouse; settings: metformin 50 mg/kg i.p. on alternate days for 30 days, n = 5
# Protocol: In vivo antidiabetic activity of the peptide was studied in diabetic animal model db/db mice. Male db/db mice with hyperglycemia were identified by checking their blood glucose level and selected for the study. Mice were divided into four groups, and the number of animals in each group was five. Blood glucose levels were measured using Accu-Chek glucometer and blood glucose measurement strips. The study was continued for 30 days. At the start of the study, fasting blood glucose in each animal was recorded, and OGTT was performed in each animal of all groups. To perform OGTT, the mice were fasted for 6 h, and then 30 min before oral glucose loading, the fasting blood glucose level in each mouse was recorded. After fasting of 6 h 3 g/kg body weight glucose was loaded orally and blood glucose at 0 minute was recorded simultaneously. Blood glucose was measured after every 30 min at 30, 60, 90, and 120 min after oral glucose loading. Time of oral glucose loading was considered as 0 min. After OGTT on day-1 peptide dosing was started. […] Thus 15 doses of the peptide/drug were administered in each db/db mice over a period of 30 days. On final day, OGTT was performed again with the same procedure described above. Blood sample was collected from each group for serum analysis. Mice were sacrificed by CO2 induced hypoxia. […]
# L6 cells = settings: peptide up to 100 μM, 2 h; MTT, absorbance 540 nm
# Protocol: Biological activity and toxicity of the purified peptides were studied on rat skeletal muscle cell line L6. L6 cell line was seeded, grown, and differentiated according to the protocols described earlier ([34]). In brief, cells were grown in low glucose-DMEM and differentiated using DMEM containing 2% fetal bovine serum supplemented 1% Antibiotic-Antimycotic ([38], [39]).
# GLUT4 [2] = experiment: GLUT4 translocation to plasma membrane, Western blot of cytosolic and membrane fractions; assay type: cell-based, rat; settings: leptin-1 5 μM 3 h; insulin 100 nM 20 min; vs vehicle-treated control
# Protocol: Separation of cytosolic and membrane fraction was performed according to the protocol mentioned earlier ([34]). In brief, the harvested cells were resuspended in membrane fractionation buffer ([40]) and kept for 1 h with regular tapping. Cellular debris were removed by centrifugation at 800g for 10 min, and the supernatant was collected in fresh micro centrifuge tube, which contains the cytosolic and crude membrane fractions. Crude membrane and cytosolic fraction were separated by centrifugation at 12000 rpm for 10 min at 4 °C. The crude membrane pellet was resuspended in radioimmunoprecipitation assay lysis buffer to elute out membrane proteins and then centrifuged at 15000 rpm for 15 min. Whole process was performed on ice. Both the samples were than resolved on 10% SDS-PAGE ([38], [40]).
# In order to examine the peptide-induced activation of a protein, related to a signaling event, we have assessed its expression in the peptide-treated L6 myotubes with respect to the myotubes, not treated with the peptide and myotubes-treated with a positive control. For this purpose, we have performed Western blotting experiments by usual procedure after resolving the proteins of the whole cell lysates of L6 myotubes, treated at different experimental conditions by SDS-PAGE. […]
# AKT = AKT activation (p-AKT), Western blot; assay type: cell-based, rat; settings: leptin-1 5 μM 3 h; insulin 100 nM 30 min; vs vehicle; normalised to total AKT
# Source text: as §2
# L6 myotubes [3] = experiment: Glucose uptake assay with 2NBDG; assay type: cell-based, rat
# Protocol: As described earlier ([34]), glucose uptake assay was performed in L6 myotubes using 2NBDG. Briefly describing, L6 cells were seeded and differentiated to myotubes as described above. Differentiated myotubes were serum fasted for 6 h with serum free DMEM and the cells were incubated with desired concentration of leptin-1 and leptin-2 peptides for specified period. […] Following peptide treatment, the cells were incubated with 200 μM of 2NBDG for 10 min and the residual 2NBDG was removed and washed with PBS. Cells were trypsinized and collected in fluorescence activated cell sorting tube for fluorescence measurement. To estimate the uptake of fluorescent glucose analog, fluorescence of the cells from different samples was measured using fluorescence activated cell sorting Aria instrument.
# GLUT4 [4] = experiment: GLUT4 translocation to plasma membrane, immunocytochemistry; assay type: cell-based, rat; settings: leptin-1 5 μM 3 h; insulin 100 nM 20 min; confocal imaging
# Protocol: ICC analysis for GLUT4 translocation to PM was studied in L6 myotubes. L6 cells were grown and differentiated in 4-chambered slide following the protocol described above. The differentiated cells were treated with test peptide and positive control insulin for specified time period. Cells were fixed in formalin and perforated using 0.4% Triton X-100. The cells were then immunostained using anti-GLUT4 primary antibody (1:100 dilution) and incubated overnight at 4 °C. Cells were washed three times with PBST and then incubated with Alexa flour-488 tagged secondary antibody and incubated for 2 h. After 2 h, cells were again washed 5 times with PBST, and nuclear staining was performed by incubating the cells for 30 min with Hoechst nuclear stain. The cells were then again washed 3 times and the slide was mounted using DPX mounting media. Imaging of the slides was done using confocal microscope, blue range and green ranges filters were used ([34]).
# IRS1 = IRS1 expression, Western blot; assay type: cell-based, rat; settings: peptides 5 μM 3 h; insulin 100 nM 30 min; vs vehicle
# Source text: as §2
# GLUT4 [5] = experiment: GLUT4 expression, Western blot; assay type: cell-based, rat; settings: peptides 5 μM 3 h; insulin 100 nM 30 min; vs vehicle; beta-actin loading control
# Source text: as §2
# BALB/c mice = experiment: In vivo acute toxicity and survival study; parameters: species or system mouse
# Protocol: In vivo toxicity and survival study with the peptides were performed in BALB/c mice. Mice were divided into five groups, each group with five number of mice. One group was kept as control group and injected only with vehicle (Water). […] Dosing was done through intraperitoneal route and only a single dosing was performed. The mice were kept under observation for a week after peptide injection. After 1 week of observation, survival of mice in all groups was recorded. At seventh day, blood samples were collected from each mice in all the groups, and the serum was isolated to estimate aspartate transaminase and alanine transaminase level ([43]).
# L6 myotubes [6] = experiment: ATP extraction and determination; assay type: cell-based, rat; settings: 24 h; rosiglitazone 10 μM; vehicle-treated control 4 μM; ATP determination kit
# Protocol: Whole amount of ATP was extracted from L6-myotubes treated with leptin-1 and leptin-2 peptides and Rosiglitazone, according to the protocol mentioned in the literature ([42]). Briefly, the cells were harvested and pelleted by centrifugation. The harvested cells were incubated with 1% trichloroacetic acid and 4 mM EDTA solution for 10 min on ice for ATP extraction. The samples were centrifuged at 12,000 rpm for 10 min to pellet down the debris, and the supernatant was used for ATP determination. ATP determination was performed according to the protocol mentioned in the ATP determination kit’s manual from Thermo Fisher Scientific. Interference of trichloroacetic acid on ATP determination was avoided by 10× dilution of the sample in water.
# L6 myotubes [7] = experiment: Mitochondrial biogenesis assay using MitoTracker red; assay type: cell-based, rat; settings: 24 h incubation; rosiglitazone 10 μM; confocal microscopy, ImageJ
# Protocol: Mitochondrial biogenesis was studied in L6 cells using mitochondrial stain MitoTracker CMXRos. The cells L6 was seeded in 4-chambered slide with a density of 20,000 cells per chamber. The cells were differentiated to myotubes following the protocol mentioned above. […] Following treatment with test peptides the cells were stained with MitoTracker red and Hoechst. The cells were then washed with PBS to remove the residual stains. Cells were then fixed with 4% paraformaldehyde and the slides were mounted using DPX. The slides were then imaged using confocal microscope. The excitation and emission wavelengths were fixed at 578 and 599 nm for red and 357 and […] for blue emission, respectively ([41]).
# [8] = 10, 20, 40 and 80 mg/kg, day 7, comparable to vehicle-treated control
compound,measurement,setting,value
CN(C)C(=N)N=C(N)N [metformin],inhibition of TNFα production,TNFα,44%
same,AMPK Thr-172 phosphorylation,AMPK protein,2 fold
same,phosphorylation of S80 of ACC2 after dorsomorphin pretreatment,"[1]; dorsomorphin 1 h, then leptin-1 5 μM 3 h or metformin",prevented
same,phosphorylation of S80 residue of ACC2,"[1]; peptides 5 μM 3 h, metformin positive control",significantly increased S80 residue phosphorylation
same,increase in serum adiponectin production,adiponectin,2.6 fold
same,inhibition of IL-6 production,IL-6,52%
same,fasting blood glucose (FBG),db/db mice,reduced FBG
same,glucose tolerance (OGTT),db/db mice; oral glucose 3 g/kg,improved glucose tolerance
VVALSRLQGSLQDMLW-NH2 [leptin-2],viability of L6 cells,L6 cells,~95%
"insulin: human insulin (Sigma-Aldrich), positive control at 100 nM",GLUT4 translocation to PM,GLUT4 [2],4 fold
same,AKT activation (p-AKT),AKT,4.2 fold
same,"glucose uptake, positive control","L6 myotubes [3]; insulin 100 nM, Fig. 2D",significantly increased glucose uptake
same,glucose uptake without inhibitor,"L6 myotubes [3]; leptin-1 5 μM 3 h, insulin 100 nM 30 min, Fig. 5C",2.4 fold
same,"GLUT4 translocation to PM (ICC, green fluorescence on PM)",GLUT4 [4],appreciable increase in green fluorescence
same,IRS1 activation and expression,IRS1,1.6 fold
same,GLUT4 expression,GLUT4 [5],1.6 fold
KQKVTGLDFIPGLHPIL-NH2 [leptin-1],survival,"BALB/c mice; 10, 20, 40 and 80 mg/kg body weight, intraperitoneal, 7 days",100%
same,serum alanine transaminase level,BALB/c mice; [8],normal
same,serum aspartate transaminase level,BALB/c mice; [8],normal
same,body weight,"BALB/c mice; all peptide-treated groups, until end of 7 days",stable body weights
same,viability of L6 cells,L6 cells,~95%
CN(CCOc1ccc(CC2SC(=O)NC2=O)cc1)c1ccccn1 (centres unmarked) [rosiglitazone],ATP production,L6 myotubes [6],13 µM
same,mitochondrial biogenesis (Mitotracker red fluorescence),L6 myotubes [7],significantly increased mitochondrial biogenesis
